Data set [1] has as its system rat mesangial cells. Nature of the data set: Proline incorporation assay: reduction of TGF-beta 1 stimulated proline incorporation. Conditions: Mesangial cell, 44 h, TGF-beta 1 5 ng/mL, read-out: Percentage Reduction of TGF-Beta 1 Stimulated Proline Incorporation; for inhibition at 10 µM: 10 μM compound; for inhibition at 30 µM: 30 μM compound; for inhibition at 100 µM: 100 μM compound. It is filed as cell-based. On the procedure:
(§1) A well-characterised cloned rat mesangial cell line (Kakizaki Y, Kraft N, Atkins R C: Differential control of mesangial cell proliferation by interferon-gamma. Clin Exp Immunol 85:157-163, 1991) was cultured in DMEM (5 mM glucose) with 5% FBS, 100U/mL penicillin, and 100 ug/mL streptomycin in humidified 5% CO2 atmosphere at 37 C. Cells were used up to passage 40.
Proline Incorporation Assay
(§2) Cells were plated into 24-well culture dishes in DMEM/5% FBS and allowed to adhere overnight. The subconfluent cells were then starved overnight in DMEM/0.1% FBS and 150 uM L-ascorbic acid, prior to pre-treatment with or without FibroTech compounds for 4 hours at 10, 30 or 100 uM in 0.1% DMSO, final concentration. TGF-beta 1 at 5 ng/mL (Peprotech) and tritiated proline (Perkin-Elmer, (2,3,4,5-^3H)-proline) at 1 uCi/mL were added and the incubation continued for a further 44 hours. Treatments were performed in triplicate.
After the incubation, cells were placed on ice and washed three times with ice cold PBS. They were then incubated on ice with 10% TCA for 30 minutes, followed by a final wash in cold 10% TCA. The cells were solubilized in 0.75 mL of 1M NaOH at 37 C for 45 minutes, or overnight at 4 C. Aliquots of the solubilized cells were neutralized in an equal amount of 1M HCl and counted in scintillant in a beta counter. Aliquots of neutralized solubilized cells were assayed for protein using the BioRad Bradford Protein Assay. Proline incorporation was normalized for protein content (cpm ^3H-proline incorporated per ug protein).
In order to compare the results of experiments performed on different days, the percentage inhibition of proline incorporation was calculated for each treatment by setting the TGF treatment at 0% inhibition and the control (incubation with media alone) at 100% inhibition.
Percentage Reduction of TGF-Beta 1 Stimulated Proline Incorporation: […]

Data set [2] deals with rat mesangial cells. Nature of the data set: Toxicity rank and cell condition observed in the proline incorporation assay. It is filed as cell-based. Also noted: key to Tox. Rank (4 = non-toxic): (4 = non-toxic). The following applies: no concentration stated. On the procedure: as §1, §2
Data set [3] in a line: Compound precipitation observed during the proline incorporation assay. Type of data set: physicochemical. Conditions: 100 μM in 0.1% DMSO. Also on record: key: ppt indicates compound precipitated during assay. As for the experimental part:
as §2

In the case of `COc1ccc(/C=C/c2nc3ncccc3c(=O)o2)cc1OC` [FT102, (E)-2-(3,4-Dimethoxystyryl)-4H-pyrido[2,3-d][1,3]oxazin-4-one], the melting point (as a rule, the temperature of the solid-liquid transition) is 228 to 231 °C. Further, in data set [1], the inhibition at 10 µM was 0%, the inhibition at 30 µM came out at 0% and the inhibition at 100 µM worked out at 10%. Further, the “Tox. Rank (4 = non-toxic)” value in data set [2] was 4. In addition, in data set [3], the “Compound precipitated during assay” value is listed as “ppt”.
In the case of `C#CCOc1ccc(/C=C/c2nc3ccccc3c(=O)o2)cc1OC` [FT107, (E)-2-(3-Methoxy-4-propargyloxystyryl)-4H-benzo[d][1,3]oxazin-4-one], the melting point was 177 to 178 °C. Besides, in data set [1], the inhibition at 10 µM is 0%, the inhibition at 30 µM came to 0% and the inhibition at 100 µM is 0%. Also, in data set [2], the “Tox. Rank (4 = non-toxic)” value is given as 4. The “Compound precipitated during assay” value in data set [3] is reported as “ppt”.
